Tests used:
Coagulation factor XII = molecular target: T1, Coagulation factor XII (Homo sapiens, UniProt P00748); assay: Protease Inhibition Assay; settings: pH 7.4
T1 sequence (P00748 whole entry): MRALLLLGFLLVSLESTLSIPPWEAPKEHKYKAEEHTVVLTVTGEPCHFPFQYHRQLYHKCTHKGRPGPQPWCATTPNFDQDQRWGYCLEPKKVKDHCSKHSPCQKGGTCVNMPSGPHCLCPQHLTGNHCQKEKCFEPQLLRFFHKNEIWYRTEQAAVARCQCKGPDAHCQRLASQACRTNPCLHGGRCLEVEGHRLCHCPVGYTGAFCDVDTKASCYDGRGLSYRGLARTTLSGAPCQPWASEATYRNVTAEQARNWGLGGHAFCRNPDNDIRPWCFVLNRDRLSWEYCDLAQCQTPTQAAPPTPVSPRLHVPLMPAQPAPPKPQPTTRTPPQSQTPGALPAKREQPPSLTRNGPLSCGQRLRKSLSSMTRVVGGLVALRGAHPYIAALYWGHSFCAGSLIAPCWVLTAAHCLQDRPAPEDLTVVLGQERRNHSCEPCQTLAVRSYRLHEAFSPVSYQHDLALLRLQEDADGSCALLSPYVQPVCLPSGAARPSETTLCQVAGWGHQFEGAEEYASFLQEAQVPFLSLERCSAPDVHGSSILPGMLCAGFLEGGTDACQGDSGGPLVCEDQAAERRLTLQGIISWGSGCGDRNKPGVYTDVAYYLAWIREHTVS
Method: (§1) The inhibition of plasma kallikrein and coagulation factor FXII was assessed by incubating the proteases with bicyclic peptide (twofold dilutions) and measuring the residual protease activity with fluorogenic substrates. The inhibition assays were performed in buffer ([…]) containing Tris HCl (pH 7.4, 10 mm), NaCl (150 mm), MgCl2 (10 mm), CaCl2 (1 mm), bovine serum albumin (BSA, 0.1 %, w/v), Triton-X100 (0.01%, v/v), and DMSO (5 %, v/v). Final concentrations of human plasma kallikrein (Innovative Research) and human FXII (Innovative Research)were 0.25 nm and 10 nm, respectively. The fluorogenic substrates Z-Phe-Arg-AMC (plasma kallikrein) and Z-Gly-Gly-Arg-AMC (FXII) were used at a final concentration of […]. Fluorescence intensity was measured with a Tecan Infinite M 200 Pro plate reader (λex= 368 nm, λem=468 nm).

Plasma kallikrein = Plasma kallikrein (Human, UniProt P03952); assay: Protease Inhibition Assay; settings: pH 7.4
Sequence of Plasma kallikrein (P03952 20-390 S143N limits assumed): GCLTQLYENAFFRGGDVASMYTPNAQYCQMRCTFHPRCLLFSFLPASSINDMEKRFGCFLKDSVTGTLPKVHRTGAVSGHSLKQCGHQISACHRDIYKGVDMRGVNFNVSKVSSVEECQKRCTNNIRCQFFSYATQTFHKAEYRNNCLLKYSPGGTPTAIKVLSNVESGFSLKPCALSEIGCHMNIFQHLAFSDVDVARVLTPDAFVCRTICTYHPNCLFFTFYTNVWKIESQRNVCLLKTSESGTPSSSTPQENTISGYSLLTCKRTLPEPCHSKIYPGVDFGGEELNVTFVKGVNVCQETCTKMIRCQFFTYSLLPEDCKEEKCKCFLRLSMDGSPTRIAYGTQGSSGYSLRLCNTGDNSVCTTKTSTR
Sequence of Plasma kallikrein (P03952 391-638 limits assumed): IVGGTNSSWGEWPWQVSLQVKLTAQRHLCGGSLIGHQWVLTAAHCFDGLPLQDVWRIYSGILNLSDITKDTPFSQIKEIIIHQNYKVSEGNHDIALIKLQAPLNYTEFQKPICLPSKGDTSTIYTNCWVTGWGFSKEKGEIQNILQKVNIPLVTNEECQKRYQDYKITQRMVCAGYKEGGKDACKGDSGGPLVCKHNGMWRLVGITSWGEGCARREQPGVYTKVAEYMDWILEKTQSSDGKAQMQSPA
Method: as §1

Ki (Coagulation factor XII)	Ki (Plasma kallikrein)	SMILES
25 nM		CSCCC(=O)N1CN(C(=O)CCSC)CN(C(=O)CCSC)C1 [TATA-FXII618 (14)]
340 nM	540 nM	CSCC(=O)N1CN(C(=O)CSC)CN(C(=O)CSC)C1 [TATB-FXII618 (15)]
	1.3 nM	CSCc1cc(CSC)cc(CSC)c1 [TBMB-PK15 (10)]
1220 nM	20 nM	CSCc1nc(CSC)nc(CSC)n1 [TBMT-FX618 (16)]

— BindingDB's records for doi:10.1002/cbic.201600612 (University of Glasgow, 2017)
